According to patent US7960549B2, “Solid forms of a chemokine receptor antagonist and methods of use thereof” (priority 2004, dated 2011):
Where a name gives a salt, the structure may show the parent alone.

Tests used:
Format in all cases: physicochemical
[1] = Controlled temperature (isothermal) X-ray powder diffraction: thermal stability of the crystalline form; conditions: isothermal scans at intervals of 10° C.
Method: X-ray powder diffraction (XRPD) is performed on various samples of the Citrate Salt using one of three instruments. XRPD measurements with Instrument 1 utilize a Siemens-Bruker D5000 Matic powder diffractometer with a Bragg-Brentano (vertical θ-2θ configuration) parafocusing geometry. X-rays are produced from a sealed cobalt anode running at 40 kV and 30 mA. Two lines are typically emitted: CoKα1 (λ=1.7890 Å) and CoKα2 (λ=1.7929 Å). An iron β-filter limits the CoKβ (λ=1.6208 Å) radiation to about 1% of the diffracted beam at the detector. The primary beam passes through a parallel plate collimator (0.2 mm Soller slits), then through a divergence slit (0.2 mm). Diffracted X-rays are detected with a Braun 50 M multichannel linear detector having a 10°-wide detection window in angle 2θ. Scans are performed from 1.5° to 50.0° in 2θ, the scan time being 10 to 40 seconds per degree in 2θ. The error in the 2θ locations are typically within ±0.10 degrees.
In Instrument 3, XRPD measurements are performed at different temperatures to elucidate the evolution of crystal structure with temperature. Tests are carried out with a Siemens-Bruker D5000 diffractometer equipped with the Bragg Brentano parafocusing (θ-θ) geometry and an Anton-Paar TTK temperature chamber. Measurements utilize dry nitrogen or nitrogen streams having a particular humidity. The instrument specifications are substantially similar to the Siemens-Bruker D5000 Matic instrument described above (Instrument 1). Temperature is allowed to rise at a rate of 0.05° C./sec. Scans are recorded under the following conditions: a 1.5 to 50.0 degree scan in angle 2θ, 10 to 20 seconds counting time per degree in 2θ. Data are acquired in isotherm mode when the requested temperature is reached.

[2] = Differential scanning calorimetry (DSC)
Method: Differential scanning calorimetry (DSC) analyses are performed using a T.A Instruments Q1000 thermal analyser. Analyses are carried out using nitrogen purge gas flowing at an average rate of 50 ml/min. A mechanical compressor cools the system, and equilibrates the instruments being used at ambient temperature between analyses. […] Energy calibration is performed with a certified indium calibrator (melting enthalpy of 28.45 J/g), applying a heating rate of 5° C./min. The temperatures identified from DSC scans of a particular sample are accurate to within ±3° C. […] Modulated temperature differential scanning calorimetry (MTDSC) is also used since deconvolution of the total heat flow into reversing and non-reversing heat flows allows the transitions to be easily identified. The samples were submitted to the same experimental temperature program: after the equilibration of the sample at −5° C., the samples were heated through a modulated program from −5° C. to 210° C. at a rate of 1° C./min. […] Experiments are performed using crimped aluminium sample pans or open pans in some cases. The quantity of product analysed is typically between 2 and 13 mg.

[3] = Prolonged exposure to fixed relative humidity or rinsing with water, XRPD before and after; conditions: week long exposure; ambient temperature
[4] = Water sorption/desorption cycling (dynamic vapor sorption, DVS) at 25° C., with XRPD before and after; conditions: 25° C.
Method: Water sorption measurements are performed on a DVS-1 automated gravimetric vapor sorption analyser (Surface Measurement Systems Ltd., London, UK). The DVS-1 measures the uptake and loss of vapor gravimetrically using a Cahn D200 recording ultra-microbalance with a mass resolution of ±0.1 μg. The relative humidity around the sample is controlled by mixing saturated and dry carrier gas streams using mass flow controllers. The temperature is maintained within ±0.1° C. by enclosing the entire system in a temperature-controlled incubator. A sample size between 15 and 20 mg is used. In general, the error in % (w/w) identified in a tested sample is ±0.1% (w/w).
Two protocols are utilized to operate the DVS. In one protocol, a sample is dried at 0% relative humidity (RH) to remove any surface water present and establish a dry, baseline mass. Next, the sample is exposed to the following relative humidity profile: 0%, 10%, 20%, 30%, 40%, 50%, 60%, 70%, 80%, 90%, 80%, 70%, 60%, 50%, 40%, 30%, 20%, 10%, 0%. In some instances, this profile is repeated, yielding 4 sets of data going up and down in RH. In another protocol, the sample is first equilibrated at 40% RH, then it was exposed to the following relative humidity profile: 40%, 50%, 60%, 70%, 80%, 90%, 100%, 90%, 80%, 70%, 60%, 50% 40% 30%, 20% 10%, 0%, 10%, 20%, 30%, 40%. […] If equilibrium state is not reached, the change in relative humidity took place automatically after 360 or 600 minutes. From the complete moisture sorption and desorption profile, an isotherm is calculated using the DVS Advanced Analysis Suite v3.6. All experiments were performed at 25° C.

[5] = Thermal gravimetric analysis (TGA)
Method: Measurements utilizing thermal gravimetric analysis (TGA) are carried out on a T.A. instruments TGAQ500 analyzer. Mass calibration is performed with 10 and 100 mg certified masses. Temperature calibration is performed with Alumel® and nickel standards (Curie points of respectively 154° C. and 354° C.). Samples are exposed to a constant nitrogen stream of 60 ml/min, and temperature ranges from room temperature to 350° C. at a 5° C./min rate. The quantity of product tested is between 2 and 13 mg. The sample is deposited in an open aluminum sample pan, which is itself placed in a platinum pan. The temperatures identified from TGA scans of a particular sample are accurate to within ±3° C. Simultaneous TGA and DSC measurements are carried out using a […] thermal analysis system produced by the […] corporation. A liquid nitrogen cooling system makes it possible to work at temperatures below 20° C. The emitted gases, upon sample heating, are carried by a transfer capillary tube to a Pfeiffer mass spectrometer, the capillary tube heated to 150° C. The mass spectrometer can analyze molecular fragments at <<m/e>> ratios between 1 and 200 uma. A sample with a mass between 1 and 27 mg is contained in an open concave aluminum sample pan (75 μL capacity) exposed to a nitrogen stream. The sample is heated at a rate of 1 or 5° C./min.

[6] = heating rate 5° C./min, A, B, H: melting/decomposition, E: loss of water and conversion to Form H, ±3° C.
[7] = mixture of Forms A and D, 0.3° C./min, Form D: conversion to Form A, Form A: melting/decomposition
[8] = sample including Forms A and C, 5° C./min, Form C: conversion to Form A, Form A: melting/decomposition
[9] = heating rate 5° C./min, sample of the single form (Form H formed from Form E sample), ±3° C.

SMILES: CC(C)(O)c1ccc2c(c1)/C(=C/CCN1CC[C@](O)(c3ccc(Cl)cc3)C(C)(C)C1)c1cccnc1CO2 [Form A, citrate salt of (S)-4-(4-Chloro-phenyl)-1-{3-[7-(1-hydroxy-1-methyl-ethyl)-11H-10-oxa-1-aza-dibenzo[a,d]cyclohepten-5-ylidene]-propyl}-3,3-dimethyl-piperidin-4-ol]
- decomposition/melting observed with controlled temperature X-ray powder diffraction [1]: above 170 °C
- DSC endothermic transition, Tmax ([2]; heating rate 1° C./min): 167 °C
- DSC endothermic transition, interpolated beginning temperature ([2]; heating rate 1° C./min): 164 °C
- DSC endothermic transition, Tmax [2, 6]: 176 °C
- DSC endothermic transition, interpolated beginning temperature [2, 6]: 169 °C
- DSC endothermic transition, Tmax [2, 7]: 166 °C
- DSC endothermic transition, interpolated beginning temperature [2, 7]: about 160 °C
- DSC endothermic transition, Tmax [2, 8]: 178 °C
- DSC endothermic transition, interpolated beginning temperature [2, 8]: about 173 °C
- crystal form by XRPD after exposure to a relative humidity of 97.5% [3]: does not change form
- change in moles of water per mole of anhydrous crystal over relative humidity 0% to 90% [4]: about 0.8 moles of water per mole of anhydrous crystal
- change in mass as the relative humidity is changed between 0% and 90% ([4]; dry crystal basis, known to within ±0.1%): about 1.9%
- XRPD before and after water sorption/desorption cycling ([4]; two consecutive cycles, 0% to 90% relative humidity): no structural change
- TGA weight loss from ambient temperature to about 100° C. ([5]; heating rate 5° C./min): about 0.23 % (w/w)
- TGA weight loss of the transition ([5]; heating rate 5° C./min, sample of the single form (Form H formed from Form E sample)): about 27.5 % (w/w)
- TGA weight loss transition, interpolated beginning temperature [5, 9]: about 164 °C
- TGA weight loss transition, temperature of maximum rate of weight loss [5, 9]: 183 °C
- TGA weight loss ([5]; sample including Forms A and C): 21.9 % (w/w)
- TGA weight loss, temperature of maximum rate of weight loss ([5]; sample including Forms A and C): 183 °C
- TGA weight loss, interpolated beginning temperature ([5]; sample including Forms A and C, Form C: conversion away from Form C, Form A: decomposition/melting): 168 °C
